This is an account of results in patent EP4800015A1, “AZABICYCLO DERIVATIVE AND PREPARATION METHOD THEREFOR, AND USE” (Zhejiang Hisun Pharmaceutical Co., Ltd., priority 2023, dated 2025).

Where only a bound is given, the exact number is not on record here.

The nature of series [1]: Pharmacokinetic test in mice after intragastric administration. Type of series: in vivo. To be noted: male, mouse, plasma, ICR mice, Oral (10 mg/kg); for AUC(0-t): read-out: Area under curve AUC0-t; for half-life: read-out: Half-life T1/2 (converted); for Cmax: read-out: Plasma concentration Cmax. As to the method:
ICR mice were used as test animals, the plasma concentrations of the control compound HRO761 and the compounds of the present disclosure at different time points after intragastric administration were determined by LC/MS/MS method, and the pharmacokinetic characteristics of the compounds of the present disclosure in mice were studied.
ICR mice, male, 30.8 to 38.0 g, purchased from Vital River Laboratory Animal Technology Co., Ltd.
An appropriate amount of the test compound was weighed, and an appropriate amount of DMA (N,N-dimethylacetamide), 30% Solutol HS15 (30% polyethylene glycol-15 hydroxystearate), and Saline (saline) were added sequentially, the mixture was ultrasonicated and vortex mixed to prepare a 1 mg/mL dosing formulation. The ratio of DMA:30% Solutol HS15:Saline was 5:5:90 (v/v/v).
After overnight fasting, ICR mice in each test compound injection group (9 mice per group) were administered intragastrically (PO, compound dose was 10 mg/kg, administration volume was 10 mL/kg), and food was given 4 hours after administration.
About 0.1 mL of blood was collected via the orbital cavity before administration and at 0.25 h, 0.5 h, 1 h, 2 h, 4 h, 8 h, 10 h, and 24 h after administration, and whole blood samples were placed in anticoagulant tubes containing EDTA-K2. The samples were placed on ice after collection, and plasma was separated by centrifugation (centrifugation conditions: 1500 g, 10 minutes). The collected plasma was stored at -40 to -20 °C before analysis.
The content of the test compound in mouse plasma after intragastric administration was determined by LC-MS/MS.

The test system of a further series is SW48 cells. The experiment in a line: Inhibition of SW48 cell proliferation (CellTiter-Glo). It is filed as cell-based. To be noted: Homo sapiens; SW48 cells (MSI-H), 120 hours. A digest of the protocol: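 SW48 (MSI-H) cells in L-15 with 10% FBS were seeded at 500 per well, cultured overnight at 37 °C, then exposed to compound at final concentrations of 10000 nM to 1.52 nM for 120 h. Viability was read by CellTiter-Glo luminescence, with inhibition relative to 0.1% DMSO. IC50 from nonlinear regression of log concentration versus inhibition.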

Another series relates to RL95-2 cells. The experiment in a line: Inhibition of RL95-2 cell proliferation (CellTiter-Glo). It is filed as cell-based. The note with it: Homo sapiens; RL95-2 cells (MSI-H), 120 hours. The essentials:
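RL95-2 (MSI-H) cells, 500/well in DMEM/F12 with 10% FBS, adhered overnight, then treated 120 h at 37 °C, 5% CO2 with compound at final 1.52-10000 nM. Viability by CellTiter-Glo luminescence. Inhibition relative to 0.1% DMSO control; IC50 from nonlinear regression of log concentration versus inhibition.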

For another series, the target named is T1, recombinant human WRN (Homo sapiens, UniProt Q14191).
T1 construct: purchased BPS 101264
Briefly: Inhibition of WRN enzyme activity (ATPase), ADP-Glo Kinase Assay. It is filed as biochemical. The note with it: WRN protein 5 nM, Flap 0.1 nM, ATP 30 µM; read-out: IC50. A digest of the protocol:
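Recombinant human WRN (5 nM) was preincubated with compound (1000–0.004 nM) for 15 min at room temperature. Flap26 5'-flap DNA (0.1 nM) and 30 µM ATP were then added for 10 min in Tris pH 7.5, MgCl2, NaCl, BSA, Pluronic buffer. ADP was detected by ADP-Glo luminescence, and IC50 was obtained by nonlinear regression versus a 0.1% DMSO control.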
In general terms: ADP-Glo first removes unused ATP, then detects ADP through luciferase.

In series [2] the test system is Caco-2 monolayer cell model. Briefly: Caco-2 bidirectional permeability and efflux ratio. Type of series: in vitro ADME. To be noted: Caco-2, conclusion. As to the method: (§1) The bidirectional permeability and efflux ratio of the example compounds and control compound were determined in a Caco-2 monolayer cell model.
(§2) Caco-2 cells (cultured at Shanghai Medicilon Inc.) were recovered in the experiment. After the cells were in good condition, they were digested, and the cell density was adjusted (1 × 10^5 cells/cm^2). Caco-2 cells were seeded into Transwell chambers and placed in 24-well plates for cultivation. After continuous cultivation for about 21 days, TEER values were measured one day before the experiment to ensure formation of a confluent cell monolayer for transport experiments (TEER > 200 Ω·cm^2). Test compounds were diluted from 10 mM stock solutions to 10 µM concentration using transport buffer (HBSS containing BSA) (metoprolol and atenolol were set as positive compounds). For efflux determination, 0.6 mL of compound dilution solution was added to the outer well (side B), and 0.4 mL of blank transport buffer was added to the Transwell chamber. For absorption determination, 0.4 mL of transport buffer containing compound was added to the Transwell chamber, and 0.6 mL of blank transport buffer was added to the outer side. After setup, the 24-well plates were cultivated at 37 °C and 5% CO2 with 95% relative humidity for 120 minutes, and permeability of test compounds from A to B direction or B to A direction was measured, respectively, with two duplicate wells set for each direction. Liquid in Transwell chambers and 24-well plates was collected separately, 60 µL each, and 180 µL of acetonitrile (containing internal standard) was added, vortexed for 1 min, then centrifuged at 4 °C, 10000 rpm for 10 min. The supernatant was taken, filtered through a 0.22 µm membrane, and placed in vials for testing. The content of the compounds in each Transwell chamber and 24-well plate was determined by liquid chromatography-tandem mass spectrometry (LC-MS/MS). Table 4 Permeability data of compounds of the present disclosure

The nature of series [3]: Caco-2 bidirectional permeability and efflux ratio. It is filed as in vitro ADME. The note with it: human, Caco-2, 10 µM, 120 minutes. On the procedure:
as §1, §2
On the technique in general: Caco-2 monolayers are a common model of the intestinal barrier.

The nature of series [4]: Metabolic stability in human liver microsomes. Type of series: in vitro ADME. To be noted: human liver microsomes 0.5 mg mL^-1, NADPH 1 mM, 0-60 min; read-out: Liver microsomal stability t1/2 (min) Human. As to the method: (§3) The purpose of this study was to investigate the metabolic stability of the compounds of the present disclosure in human and dog liver microsomes.
(§4) The compounds were co-incubated with human (or dog) liver microsomes, and the reaction was initiated by adding coenzyme NADPH (1 mM). At 0, 5, 15, 30, and 60 minutes, 60 µL of incubation solution was removed, and 180 µL of acetonitrile containing internal standard (clopidogrel) was added to quench the reaction, the mixture was shaken for 10 seconds, centrifuged at 10000 rpm for 10 minutes, and the supernatant was taken for analysis by LC-MS/MS. The in vitro intrinsic clearance was calculated based on the elimination half-life of the test compound in the incubation system. Midazolam was used as an internal reference compound, with two parallel incubations for each. Incubation conditions are summarized in Table 6 below: Table 6 Incubation conditions for the example compounds of the present disclosure
(§5) The ratio of the peak area of analyte to internal standard (Aanalyte/AIS) was obtained from the instrument, and the remaining percentage (%Control) was calculated from the ratio of Aanalyte/AIS in non-zero time point samples to zero time samples. Ln (%Control) was plotted against incubation time and linearly fitted. The test compound clearance constant (k, min^-1) and clearance half-life (T1/2, min) were calculated using the following equations. k = −slope [formula] T1/2 = 0.693/k. [formula]

Series [5] in a line: Metabolic stability in dog liver microsomes. It is filed as in vitro ADME. To be noted: dog liver microsomes 0.5 mg mL^-1, NADPH 1 mM, 0-60 min; read-out: Liver microsomal stability t1/2 (min) Dog. As to the method:
as §3, §4, §5

T1 sequence (Q14191 whole entry): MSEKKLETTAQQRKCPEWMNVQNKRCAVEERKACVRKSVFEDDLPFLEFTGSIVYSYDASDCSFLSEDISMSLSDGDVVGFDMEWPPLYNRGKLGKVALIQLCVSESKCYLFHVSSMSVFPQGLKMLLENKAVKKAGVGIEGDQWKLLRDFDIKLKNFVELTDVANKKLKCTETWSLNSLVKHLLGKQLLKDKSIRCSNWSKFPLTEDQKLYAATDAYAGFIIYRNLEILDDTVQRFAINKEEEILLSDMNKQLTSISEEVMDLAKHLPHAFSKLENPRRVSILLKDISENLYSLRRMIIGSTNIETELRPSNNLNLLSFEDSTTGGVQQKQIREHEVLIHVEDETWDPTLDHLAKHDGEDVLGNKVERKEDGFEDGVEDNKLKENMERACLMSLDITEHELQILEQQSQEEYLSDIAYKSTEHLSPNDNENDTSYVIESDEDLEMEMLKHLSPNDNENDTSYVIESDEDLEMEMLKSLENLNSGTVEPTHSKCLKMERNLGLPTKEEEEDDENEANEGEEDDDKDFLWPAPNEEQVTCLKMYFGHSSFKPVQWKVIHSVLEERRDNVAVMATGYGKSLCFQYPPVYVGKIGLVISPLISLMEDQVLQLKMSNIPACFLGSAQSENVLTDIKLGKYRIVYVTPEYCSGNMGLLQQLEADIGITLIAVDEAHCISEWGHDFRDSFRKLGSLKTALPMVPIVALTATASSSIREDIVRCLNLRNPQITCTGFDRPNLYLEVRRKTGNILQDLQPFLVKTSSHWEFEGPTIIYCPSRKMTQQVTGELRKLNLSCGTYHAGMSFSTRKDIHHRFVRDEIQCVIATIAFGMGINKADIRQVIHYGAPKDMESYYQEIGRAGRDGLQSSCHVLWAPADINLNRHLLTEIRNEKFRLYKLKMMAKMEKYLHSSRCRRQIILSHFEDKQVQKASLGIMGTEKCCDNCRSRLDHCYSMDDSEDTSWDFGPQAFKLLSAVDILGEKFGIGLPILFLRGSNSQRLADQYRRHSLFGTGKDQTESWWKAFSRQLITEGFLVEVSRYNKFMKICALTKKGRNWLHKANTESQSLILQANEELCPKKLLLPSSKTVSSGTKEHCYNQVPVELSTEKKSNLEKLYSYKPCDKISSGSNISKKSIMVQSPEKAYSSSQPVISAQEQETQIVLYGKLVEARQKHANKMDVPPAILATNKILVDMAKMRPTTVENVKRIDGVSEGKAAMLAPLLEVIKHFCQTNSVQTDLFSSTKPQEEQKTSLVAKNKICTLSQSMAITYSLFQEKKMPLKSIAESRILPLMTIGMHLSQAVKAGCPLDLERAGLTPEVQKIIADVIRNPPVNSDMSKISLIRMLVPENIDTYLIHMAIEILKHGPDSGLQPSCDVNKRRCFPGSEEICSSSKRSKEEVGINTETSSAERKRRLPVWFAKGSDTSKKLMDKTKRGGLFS

Take `CCc1c(N2CCN(C(=O)c3ncnc(C)c3O)CC2)c(=O)n2nc(C3=CCCCCC3)nc2n1CC(=O)Nc1ccc(C(F)(F)F)cc1Cl` [Example 6, N-(2-chloro-4-(trifluoromethyl)phenyl)-2-(2-(cyclohept-1-en-1-yl)-5-ethyl-6-(4-(5-hydroxy-6-methylpyrimidine-4-carbonyl)piperazin-1-yl)-7-oxo-[1,2,4]triazolo[1,5-a]pyrimidin-4(7H)-yl)acetamide]: in series [1], the AUC(0-t) came out at 39700 ng·h/mL, the half-life is 1.26 h and the Cmax was determined as 15900 ng/mL. This compound displayed an IC50 with SW48 cells of 1 to 100 nM. In the series with RL95-2 cells, this compound yielded an IC50 of 1 to 100 nM. For the same compound, the IC50 on recombinant human WRN is below 1 nM.
`CCc1c(N2CCN(C(=O)c3ncnc(C)c3O)CC2)c(=O)n2nc(C3=CCCCCC3)nc2n1CC(=O)Nc1ccc(S(F)(F)(F)(F)F)cc1` [Example 27, 2-(2-(cyclohept-1-en-1-yl)-5-ethyl-6-(4-(5-hydroxy-6-methylpyrimidine-4-carbonyl)piperazin-1-yl)-7-oxo-[1,2,4]triazolo[1,5-a]pyrimidin-4(7H)-yl)-N-(4-(pentafluoro-λ^66-sulfaneyl)phenyl)acet amide]: in series [1], the AUC(0-t) worked out at 66600 ng·h/mL, the half-life was 2.27 h and the Cmax was determined as 18100 ng/mL. Further, the IC50 in the series with SW48 cells was 1 to 100 nM. In the series with RL95-2 cells, this compound yielded an IC50 of 1 to 100 nM. At recombinant human WRN, the IC50 is 1 to 100 nM.
As to `CCc1c(N2CCN(C(=O)c3ncnc(C)c3O)CC2)c(=O)n2nc(-c3ccc4ccoc4c3)nc2n1CC(=O)Nc1ccc(C(F)(F)F)cc1Cl` [Example 68, 2-(2-(benzofuran-6-yl)-5-ethyl-6-(4-(5-hydroxy-6-methylpyrimidine-4-carbonyl)piperazin-1-yl)-7-oxo-[1,2,4]triazolo[1,5-a]pyrimidin-4(7H)-yl)-N-(2-chloro-4-(trifluoromethyl)phenyl)acetamide], in series [1], the AUC(0-t) is 98900 ng·h/mL, the half-life was 2.41 h and the Cmax amounted to 17300 ng/mL. Moreover, in series [2], the “efflux (in words)” value is reported as “no significant efflux” and the “permeability (in words)” value is given as “moderate permeability”. In addition, the efflux ratio at 120 min, 10 µM in series [3] (read-out: Efflux ratio Papp(B-A)/ Papp(A-B)) is 1.1. In addition, in series [3] (A to B), the Papp A→B at 120 min, 10 µM worked out at 4.64 ×10⁻⁶ cm/s. For the same compound, the Papp B→A at 120 min, 10 µM in series [3] (B to A) came to 5.09 ×10⁻⁶ cm/s. This compound registered an IC50 in the series on RL95-2 cells of 1 to 100 nM. For the same compound, the IC50 at recombinant human WRN is below 1 nM.
With `CCc1c(N2CCN(C(=O)c3ncnc(C)c3O)CC2)c(=O)n2nc(-c3ccc4c(c3)CCO4)nc2n1CC(=O)Nc1ccc(C(F)(F)F)cc1Cl` [Example 76, N-(2-chloro-4-(trifluoromethyl)phenyl)-2-(2-(2,3-dihydrobenzofuran-5-yl)-5-ethyl-6-(4-(5-hydroxy-6-methylpyrimidine-4-carbonyl)piperazin-1-yl)-7-oxo-[1,2,4]triazolo[1,5-a]pyrimidin-4(7H)-yl)acetamide], the figures for the half-life in series [4] and in series [5] were 999 min and 200 min, respectively. For the same compound, the 50% inhibitory concentration (IC50) with RL95-2 cells and on recombinant human WRN was 1 to 100 nM in each case.
Consider `CCc1c(N2CCN(C(=O)c3ncnc(C)c3O)CC2)c(=O)n2nc(-c3ccc4occc4c3)nc2n1CC(=O)Nc1ccc(S(F)(F)(F)(F)F)cc1` [Example 97, 2-(2-(benzofuran-5-yl)-5-ethyl-6-(4-(5-hydroxy-6-methylpyrimidine-4-carbonyl)piperazin-1-yl)-7-oxo-[1,2,4]triazolo[1,5-a]pyrimidin-4(7H)-yl)-N-(4-(pentafluoro-λ^6-sulfaneyl)phenyl)acetamide], for which, in series [1], the AUC(0-t) turned out to be 28500 ng·h/mL, the half-life is 2.3 h and the Cmax was 9920 ng/mL. Moreover, the IC50 in the series with SW48 cells lay within 1 to 100 nM. In addition, the IC50 in the series with RL95-2 cells lay within 1 to 100 nM. Moreover, on recombinant human WRN, the IC50 lay within 1 to 100 nM.
For `CCc1c(N2CCN(C(=O)c3ncnc(C)c3O)CC2)c(=O)n2nc(-c3ccc4c(ccn4C)c3)nc2n1CC(=O)Nc1ccc(C(F)(F)F)cc1Cl` [Example 103, N-(2-chloro-4-(trifluoromethyl)phenyl)-2-(5-ethyl-6-(4-(5-hydroxy-6-methylpyrimidine-4-carbonyl)piperazin-1-yl)-2-(1-methyl-1H-indol-5-yl)-7-oxo-[1,2,4]triazolo[1,5-a]pyrimidin-4(7H)-yl)ac etamide], in series [1], the AUC(0-t) amounted to 24300 ng·h/mL, the half-life was 2.75 h and the Cmax amounted to 7120 ng/mL. The 50% inhibitory concentration (IC50) in the series with SW48 cells fell in the range of 1 to 100 nM. Besides, in the series on RL95-2 cells, the IC50 was 1 to 100 nM. Moreover, the IC50 at recombinant human WRN was 1 to 100 nM.
On to `Cc1ncnc(C(=O)N2CCN(c3c(C)n(CC(=O)Nc4ccc(C(F)(F)F)cc4Cl)c4nc(-c5ccc6c(c5)CCO6)nn4c3=O)CC2)c1O` [Example 106, N-(2-chloro-4-(trifluoromethyl)phenyl)-2-(2-(2,3-dihydrobenzofuran-5-yl)-6-(4-(5-hydroxy-6-methylpyrimidine-4-carbonyl)piperazin-1-yl)-5-methyl-7-oxo-[1,2,4]triazolo[1,5-a]pyrimidin-4(7H) -yl)acetamide], for which the AUC(0-t) in series [1] is 330000 ng·h/mL. Besides, in series [1], the half-life is 4.85 h. In addition, the Cmax in series [1] was 45000 ng/mL. The IC50 in the series on SW48 cells, in the series with RL95-2 cells and on recombinant human WRN was 1 to 100 nM throughout.

By IC50 is commonly meant the concentration needed to halve the response being measured. The term Papp A→B denotes the apparent permeability from the apical to the basolateral side of a cell layer. In general, Papp B→A refers to the apparent permeability from the basolateral to the apical side of a cell layer.
